Activity calls are given as the source filed them.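 How the source made its calls: active means IC50 at or below 10 µM; inactive means IC50 above 10 µM.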

In this experiment the target is KH domain-containing RNA-binding protein QKI (Mus musculus) (UniProt Q9QYS9). In words: inhibitors of QKI-RNA binding, dose response, gld-1 inhibitor project, biochemical, fluorescence polarization, mouse QKI, powder samples (AID 488770). Particulars: 1536-well.
Chain of KH domain-containing RNA-binding protein QKI (Mus musculus) (Q9QYS9 whole entry, looked up, the tested form may be a part): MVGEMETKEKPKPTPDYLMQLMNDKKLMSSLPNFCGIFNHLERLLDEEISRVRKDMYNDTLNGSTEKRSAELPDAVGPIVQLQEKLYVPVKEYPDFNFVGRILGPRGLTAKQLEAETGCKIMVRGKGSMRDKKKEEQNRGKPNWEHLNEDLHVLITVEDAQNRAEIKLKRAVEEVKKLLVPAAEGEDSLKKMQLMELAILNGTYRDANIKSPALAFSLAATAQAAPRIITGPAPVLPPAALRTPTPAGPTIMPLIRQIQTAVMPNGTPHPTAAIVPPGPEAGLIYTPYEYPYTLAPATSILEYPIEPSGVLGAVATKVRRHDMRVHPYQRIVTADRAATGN
Take `O=c1[nH]c(=O)c2nc3ccccc3nc2[nH]1`: the IC50 entry was “inactive”. The value for `O=C(CN1C(=O)NC2(CCCCC2)C1=O)Oc1ccc2c(C(F)(F)F)cc(=O)oc2c1` was 2.13 µM; that for `O=C1C2=C(SCCS2)C(=O)N1CCCO` was 2.24 µM. The value for `CCCCn1c(=O)[nH]c2nc3cc(NC(C)=O)ccc3nc2c1=O` was 1.59 µM; that for `COc1ccc(/C=C(\CC(=O)O)c2nc3ccccc3s2)cc1O` was 0.155 µM. The value for `Cc1ccc(S(=O)(=O)Nc2cc3c(C(=O)Nc4ccccc4)c(C)oc3c3ccccc23)cc1` was 0.262 µM; that for `O=c1[nH]c2cc3ccccc3cc2nc1C(F)(F)F` was 1.17 µM.

Take `CC1=CC(=O)c2c(O)ccc(O)c2C1=O`: the IC50 was 5.62 µM. The value for `Nc1c(O)ccc2c1C(=O)c1ccccc1C2=O` was 2.53 µM; that for `CCN(CC)S(=O)(=O)c1ccc(N2CCCC2)c(NS(=O)(=O)c2ccc(F)cc2)c1` was 1.62 µM; that for `COc1ccc(C=Nc2c(-c3ccco3)nc3ccccn23)cc1OC` was “inactive”. For `CCOC(=O)c1c(C)oc2c1cc(NS(=O)(=O)c1ccc(C)cc1)c1ccccc12`, the IC50 was > 59.6 µM (inactive).

Consider `Nc1ccc2nonc2c1[N+](=O)[O-]`, for which the IC50 was > 59.6 µM (inactive).

In the case of `Nc1ccc(O)c2c1C(=O)c1ccccc1C2=O`, the IC50 is 2.28 µM. The value for `Cc1ccc(S(=O)(=O)Nc2cc3c(C(=O)Nc4ccccc4)c(C)oc3c3ccccc23)c(C)c1` was 0.419 µM.

(Values after PubChem BioAssay AID488770 (The Scripps Research Institute Molecular Screening Center, 2010).)
